For orientation: pEC50 means −log10 of the EC50, conventionally taken in molar units. Low readings indicate a large EC50, high ones a small EC50. For orientation: half-life means how long it takes for the measured level to halve. A lower half-life goes with rapid decline.

Positions of bridges follow the written chain, without caps; N, C: chain ends. Non-standard residues stand in square brackets, D forms with d. Residues, ends and D or L forms follow the SMILES beside them. *: point of attachment. X1 = C[N+](C)(C)[C@@H](Cc1ccccc1)C(=O)*; NMeF = CN[C@@H](Cc1ccccc1)C(=O)O

Series [1] addresses T1, motilin receptor (Oryctolagus cuniculus, UniProt G1T803).
T1 construct: from tissue; host or cells: rabbit antral smooth muscle membranes
Kind of series: Motilin receptor binding affinity (displacement of [125I-Tyr7,Nle13]motilin(porcine)). On the set-up: species or system rabbit. As to conditions: negative logarithm of concentration displacing 50% of [125I-Tyr7,Nle13]motilin(porcine) bound to rabbit antral smooth muscle membranes; read-out: pIC50 (converted). How it is done: The motilin receptor binding affinity of the peptides of this invention was determined by using the general procedure of Bormans, Peeters and Vantrappen, Regul. […] Fitting was performed using the iterative least-squares procedure of the SAS-software package (SAS Institute, Inc., Cary, N.C., USA).
(In general: Loss of bound radioactivity is the signal in a displacement assay; it reports binding, not function.)

Series [2] addresses rabbit duodenal smooth muscle strip (Oryctolagus cuniculus, UniProt G1T803). Kind of series: Rabbit duodenal smooth muscle strip tissue bath assay (contractility). It is filed as cell-based. Conditions: negative logarithm of dose giving 50% of maximal response to motilin; isotonic contraction of rabbit duodenum segments. How it is done:
The experimental protocol consisted of an equilibration period of 1 hour; a challenge with 10^-4 M acetylcholine followed by a wash-out period; a cumulative dose-response curve of a compound with, at the end, the addition of 10^-7 M motilin; and finally 10^-4 M acetylcholine. If the final response to 10^-4 M acetylcholine differed by more than 5% from the initial response, the results were discarded.

Series [3] in a line: In vitro stability testing in 2% hog kidney homogenate. It is filed as in vitro ADME. As to conditions: pig, kidney or brush border membranes, pH 7. How it is done: Like most small linear polypeptides, motilin is believed to be metabolized by the brush border cells of the kidney. Therefore, kidney homogenate was chosen as the model system for assessing the relative in vivo biostability of the peptides of this invention. All peptides to be studied were incubated in hog kidney (Pel Freeze, Inc., Rogers, Ark.) (2% w/v; final volume=4 mls; buffer=HEPES pH 7.0) at 25° C. […] In order to determine suitable incubation times and sampling intervals, two experiments were conducted with each polypeptide. The first run served as a rough estimate of peptide stability. All sampling was performed in duplicate. Sample volume was 180 μl. Sample clean-up was performed by addition of 20 μl of 100% TCA (final volume=200 μl; final TCA concentration=10%). The sample was vortexed from 5 to 10 seconds to ensure equilibration, then centrifuged to spin out the precipitated proteins. Analysis was carried out on a Waters HPLC system with autoinjector, a 5 μVydac C-18 analytical column, and a Waters 481 UV detector set at 214 nm. Injection volume was 80 μl. Initial solvent conditions were 20% acetonitrile / 80% (0.1%) TFA in Milli-Q water with a 35 minute gradient running to 63% acetonitrile / 37% (0.1%) TFA at 1 ml/min. Polypeptide substrate and metabolite peaks were ratioed to the internal standard and the duplicate sample ratios were averaged. The average ratio for the peptide substrate was expressed as a percentage and plotted versus time. First-order kinetics was assumed for data treatment. The rate of disappearance of the substrate was calculated using the Enzfitter program (Biosoft). Relative half-lives were determined from the relationship: […]

For series [4] the following is noted: in vivo; cited from earlier work.

T1 sequence (G1T803 1-400): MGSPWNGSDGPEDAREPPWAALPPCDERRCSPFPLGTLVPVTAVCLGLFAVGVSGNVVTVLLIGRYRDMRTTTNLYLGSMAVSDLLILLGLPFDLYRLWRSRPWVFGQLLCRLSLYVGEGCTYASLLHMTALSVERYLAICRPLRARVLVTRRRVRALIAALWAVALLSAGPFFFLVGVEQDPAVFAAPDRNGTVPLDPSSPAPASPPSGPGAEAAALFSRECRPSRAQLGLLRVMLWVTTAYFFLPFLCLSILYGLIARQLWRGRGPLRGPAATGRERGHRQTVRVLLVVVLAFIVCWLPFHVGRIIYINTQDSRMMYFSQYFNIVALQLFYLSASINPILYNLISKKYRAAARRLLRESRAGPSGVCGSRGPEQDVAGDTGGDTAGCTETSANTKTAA
Chain of rabbit duodenal smooth muscle strip (G1T803 1-400): as above

Consider `CC[C@H](C)[C@H](NC(=O)[C@@H]1CCCN1C(=O)[C@@H](NC(=O)[C@H](Cc1ccccc1)[N+](C)(C)C)C(C)C)C(=O)N[C@@H](Cc1ccccc1)C(=O)N[C@H](C(=O)N[C@@H](Cc1ccc(O)cc1)C(=O)NCC(=O)N[C@@H](CCC(=O)O)C(=O)N[C@H]1CC(=O)NCCCC[C@@H](C(=O)N[C@H](CCCCN)C(N)=O)NC(=O)[C@H](CC(C)C)NC(=O)[C@H](CCCNC(=N)N)NC(=O)[C@H](C)NC1=O)[C@@H](C)O` [SEQ ID NO:11, cyclo^10,14 [Me3 N^+ Phe^1,Asp^10,Ala^11,Leu^13,Lys^14,D-Lys^15]pMOT(1-15) amide] (X1-VPIFTYGEDARLK[dK]-NH2; lactam 9-13), for which the IC50 in series [1] was 1.23 nM. Further, the pEC50 in series [2] came out at 7.89. In series [3], this molecule showed a half-life at 0.5 mg/ml of 7.28 h.
Take `CC[C@H](C)[C@H](NC(=O)[C@@H]1CCCN1C(=O)[C@@H](NC(=O)[C@H](Cc1ccccc1)[N+](C)(C)C)C(C)C)C(=O)N[C@@H](Cc1ccccc1)C(=O)N[C@H](C(=O)N[C@@H](Cc1ccc(O)cc1)C(=O)NCC(=O)N[C@@H](CCC(=O)O)C(=O)N[C@H]1CC(=O)NCCCC[C@@H](C(=O)N[C@@H](CCCCN)C(N)=O)NC(=O)[C@H](CC(C)C)NC(=O)[C@H](CCCNC(=N)N)NC(=O)[C@H](C)NC1=O)[C@@H](C)O` [SEQ ID NO:18, cyclo^10,14 [Me3 N^+ Phe^1,Asp^10,Ala^11,Leu^13,Lys^14,Lys^15]pMOT(1-15) amide] (X1-VPIFTYGEDARLKK-NH2; lactam 9-13): in series [1], the IC50 is 1.78 nM. The molecule further came in with a pEC50 in series [2] of 7.72. This molecule also yielded a half-life at 0.5 mg/ml in series [3] of 6.88 h.
In the case of `CC[C@H](C)[C@H](NC(=O)[C@@H]1CCCN1C(=O)[C@@H](NC(=O)[C@H](Cc1ccccc1)[N+](C)(C)C)C(C)C)C(=O)N[C@@H](Cc1ccccc1)C(=O)N[C@H](C(=O)N[C@@H](Cc1ccc(O)cc1)C(=O)NCC(=O)N[C@@H](CCC(=O)O)C(=O)N[C@H]1CC(=O)NCCCC[C@@H](C(N)=O)NC(=O)[C@H](CC(C)C)NC(=O)[C@H](CCCNC(=N)N)NC(=O)[C@H](C)NC1=O)[C@@H](C)O` [SEQ ID NO:16, cyclo^10,14 [Me3 N^+ Phe^1,Asp^10,Ala^11 Leu^13,Lys^14]pMOT(1-14) amide] (X1-VPIFTYGEDARLK-NH2; lactam 9-13), the IC50 in series [1] is 2.24 nM. The pEC50 in series [2] turned out to be 6.98. Further, the half-life at 0.5 mg/ml in series [3] was found to be 1.72 h.
`CC[C@H](C)[C@H](NC(=O)[C@@H]1CCCN1C(=O)[C@@H](NC(=O)[C@H](Cc1ccccc1)[N+](C)(C)C)C(C)C)C(=O)N[C@@H](Cc1ccccc1)C(=O)N[C@H](C(=O)N[C@@H](Cc1ccc(O)cc1)C(=O)NCC(=O)N[C@@H](CCC(=O)O)C(=O)N[C@H]1CCC(=O)NCCCC[C@@H](C(=O)N[C@@H](CCCCN)C(N)=O)NC(=O)[C@H](CC(C)C)NC(=O)[C@@H](CCCNC(=N)N)NC(=O)[C@H](C)NC1=O)[C@@H](C)O` [SEQ ID NO:20, cyclo^10,14 [Me3 N^+ Phe^1,Glu^10,Ala^11,D-Arg^12,Leu^13,Lys^14,Lys^15]pMOT(1-15) amide] (X1-VPIFTYGEEA[dR]LKK-NH2; lactam 9-13): the IC50 in series [1] was 1.55 nM. In addition, the pEC50 in series [2] was found to be 7.34. The half-life at 0.5 mg/ml in series [3] came to 0.817 h.
Take `CC[C@H](C)[C@H](NC(=O)[C@@H]1CCCN1C(=O)[C@@H](NC(=O)[C@H](Cc1ccccc1)NC)C(C)C)C(=O)N[C@@H](Cc1ccccc1)C(=O)N[C@H](C(=O)N[C@@H](Cc1ccc(O)cc1)C(=O)NCC(=O)N[C@@H](CCC(=O)O)C(=O)N[C@H]1CCC(=O)NCCCC[C@@H](C(N)=O)NC(=O)[C@H](CC(C)C)NC(=O)[C@H](CCCNC(=N)N)NC(=O)[C@H](CCC(N)=O)NC1=O)[C@@H](C)O` [SEQ ID NO:22, cyclo^10,14 [N-MePhe^1,Glu^10,Leu^13,Lys^14]pMOT(1-14) amide] (H-[NMeF]VPIFTYGEEQRLK-NH2; lactam 10-14): in series [1], the IC50 was 0.912 nM. This molecule also came in with a pEC50 in series [2] of 8.73. For the same molecule, the half-life at 0.5 mg/ml in series [3] came to 0.583 h.
For `CC[C@H](C)[C@H](NC(=O)[C@@H]1CCCN1C(=O)[C@@H](NC(=O)[C@H](Cc1ccccc1)NC)C(C)C)C(=O)N[C@@H](Cc1ccccc1)C(=O)N[C@H](C(=O)N[C@@H](Cc1ccc(O)cc1)C(=O)NCC(=O)N[C@@H](CCC(=O)O)C(=O)N[C@H]1CCC(=O)NCCCC[C@@H](C(=O)N[C@@H](CCCCN)C(N)=O)NC(=O)[C@H](CC(C)C)NC(=O)[C@H](CCCNC(=N)N)NC(=O)[C@H](C)NC1=O)[C@@H](C)O` [SEQ ID NO:10, cyclo^10,14 [N-MePhe^1,Glu^10,Ala^11,Leu^13,Lys^14,Lys^15]pMOT(1-15) amide] (H-[NMeF]VPIFTYGEEARLKK-NH2; lactam 10-14), in series [1], the IC50 was 0.631 nM. In series [2], this molecule came in with a pEC50 of 7.96. For the same molecule, the half-life at 0.5 mg/ml in series [3] turned out to be 0.35 h.
In the case of `CC[C@H](C)[C@H](NC(=O)[C@@H]1CCCN1C(=O)[C@@H](NC(=O)[C@H](Cc1ccccc1)[N+](C)(C)C)C(C)C)C(=O)N[C@@H](Cc1ccccc1)C(=O)N[C@H](C(=O)N[C@@H](Cc1ccc(O)cc1)C(=O)NCC(=O)N[C@@H](CCC(=O)O)C(=O)N[C@H]1CCC(=O)NCCCC[C@@H](C(=O)N[C@@H](CCCCN)C(N)=O)NC(=O)[C@H](CC(C)C)NC(=O)[C@H](CCCNC(=N)N)NC(=O)[C@H](C)NC1=O)[C@@H](C)O` [SEQ ID NO:21, cyclo^10,14 [Me3 N^+ Phe^1,Glu^10,Ala^11,Leu^13,Lys^14,Lys^15]pMOT(1-15) amide] (X1-VPIFTYGEEARLKK-NH2; lactam 9-13), the IC50 in series [1] was 1.35 nM. In addition, in series [2], the pEC50 came out at 7.76. In series [3], this molecule registered a half-life at 0.5 mg/ml of 4.45 h.
For `CC[C@H](C)[C@H](NC(=O)[C@@H]1CCCN1C(=O)[C@@H](NC(=O)[C@H](Cc1ccccc1)[N+](C)(C)C)C(C)C)C(=O)N[C@@H](Cc1ccccc1)C(=O)N[C@H](C(=O)N[C@@H](Cc1ccc(O)cc1)C(=O)NCC(=O)N[C@@H](CCC(=O)O)C(=O)N[C@H]1CC(=O)NCCCC[C@@H](C(=O)N[C@@H](CCCCN)C(N)=O)NC(=O)[C@H](CC(C)C)NC(=O)[C@@H](CCCNC(=N)N)NC(=O)[C@H](C)NC1=O)[C@@H](C)O` [SEQ ID NO:19, cyclo^10,14 [ME3 N^+ Phe^1,Asp^10,Ala^11,D-Arg^12,Leu^13,Lys^14,Lys^15]pMOT(1-15) amide] (X1-VPIFTYGEDA[dR]LKK-NH2; lactam 9-13), the IC50 in series [1] is 2.88 nM. The pEC50 in series [2] came out at 7.72. In addition, the half-life at 0.5 mg/ml in series [3] was 1.42 h.
Turning to `CC[C@H](C)[C@H](NC(=O)[C@@H]1CCCN1C(=O)[C@@H](NC(=O)[C@H](Cc1ccccc1)NC)C(C)C)C(=O)N[C@@H](Cc1ccccc1)C(=O)N[C@H](C(=O)N[C@@H](Cc1ccc(O)cc1)C(=O)NCC(=O)N[C@@H](CCC(=O)O)C(=O)N[C@H]1CCC(=O)NCCCC[C@@H](C(=O)N[C@@H](CCCCN)C(N)=O)NC(=O)[C@H](CC(C)C)NC(=O)[C@@H](CCCNC(=N)N)NC(=O)[C@H](C)NC1=O)[C@@H](C)O` [SEQ ID NO:15, cyclo^10,14 [N-MePhe^1,Glu^10,Ala^11,D-Arg^12,Leu^13,Lys^14,Lys^15]pMOT(1-15) amide] (H-[NMeF]VPIFTYGEEA[dR]LKK-NH2; lactam 10-14), the IC50 in series [1] was 1.02 nM. This molecule yielded a pEC50 in series [2] of 7.68. This molecule gave a half-life at 0.5 mg/ml in series [3] of 0.65 h.
As to `CC[C@H](C)[C@H](NC(=O)[C@@H]1CCCN1C(=O)[C@@H](NC(=O)[C@@H](N)Cc1ccccc1)C(C)C)C(=O)N[C@@H](Cc1ccccc1)C(=O)N[C@H](C(=O)N[C@@H](Cc1ccc(O)cc1)C(=O)NCC(=O)N[C@@H](CCC(=O)O)C(=O)N[C@@H](CC(C)C)C(=O)N[C@@H](CCC(N)=O)C(=O)N[C@@H](CCCNC(=N)N)C(=O)N[C@@H](CCSC)C(=O)N[C@@H](CCC(N)=O)C(=O)N[C@@H](CCC(=O)O)C(=O)N[C@@H](CCCCN)C(=O)N[C@@H](CCC(=O)O)C(=O)N[C@@H](CCCNC(=N)N)C(=O)N[C@@H](CC(N)=O)C(=O)N[C@@H](CCCCN)C(=O)NCC(=O)N[C@@H](CCC(N)=O)C(=O)O)[C@@H](C)O` [motilin], the “half-life (t1/2)” value in series [4] is 4.5 min.
